{
  "source": "patent US20220184081A1",
  "about": "“ANTIPRURITIC AGENT USING PAC1 RECEPTOR ANTAGONIST” (KAGOSHIMA UNIVERSITY, priority 2019, published 2022)",
  "key": {"[1]": {"system": "serotonin (5-HT)-induced itch mouse model", "experiment": "Serotonin (5-HT)-induced itch mouse model", "assay_type": "in vivo", "settings": "intrathecal pre-administration 30 minutes before 5-HT 50 nmol i.d.; PA-8 0.1 or 1 nmol; P6-38 100 pmol; FIG. 1", "procedure": "5-HT (50 nmol, 10 μL) was intradermally injected into the waist of each mouse (intradermal injection, i.d.). The reaction of the mice to bite, lick or scratch the injected site was defined as an itch behavior, and the action time was measured every 5 minutes. […] SLN indicates the effects obtained in the case of administering normal saline instead of 5-HT. ACSF is an abbreviation of an artificial cerebrospinal fluid, which was a solvent for P6-38 and PA-8."}, "[2]": {"system": "dry skin itch mouse model", "experiment": "Dry skin itch mouse model (AEW treatment)", "assay_type": "in vivo, ICR mice", "settings": "oral PA-8 3, 10 or 30 mg/kg; observed 1 hour from 30 minutes after administration; FIG. 3", "procedure": "The present test was carried out with reference to the method of Miyamoto et al. that is a test system published as a method for evaluating itch in animals (Miyamoto T., Nojima H., Shinkado T., et al.: Itch-associated response induced by experimental dry skin in mice, Jpn. J. Phamacol., 88, 285-292, 2002).\nFive-week-old ICR mice (40 mice) were each placed in a cage, and were then conditioned for 1 week. Thereafter, three days before initiation of the test, the rostral back of each mouse was shaved (treatment method A). The thus shaved 40 mice were divided into 5 groups (8 mice/group), namely, into a 3 mg/kg PA-8 oral (p.o.) administration group, a 10 mg/kg PA-8 oral (p.o.) administration group, a 30 mg/kg PA-8 oral (p.o.) administration group, a comparative group, and a control group.\nIn the PA-8 administration groups, the mice, which had undergone a shaving treatment (treatment method A), were subjected to ether anesthesia. Thereafter, a cotton (2×2 cm) impregnated with a mixed solution of acetone (A): diethyl ether (E) (1:1) was applied to the rostral back of each mouse for 15 seconds, and then, a cotton impregnated with ion exchange water (W) was applied thereto for 30 seconds [hereinafter, a series of treatments are abbreviated as an AEW treatment (treatment method B)]. The AEW treatment was carried out twice a day, with intervals of 8 hours, for 5 days. […]"}, "[3]": {"molecular_target": "T1, mouse PAC1 receptor (Mus musculus, UniProt P70205)", "T1 construct": "expressed in transfected cells; host or cells: CHO cells", "T1 sequence (P70205 21-496)": "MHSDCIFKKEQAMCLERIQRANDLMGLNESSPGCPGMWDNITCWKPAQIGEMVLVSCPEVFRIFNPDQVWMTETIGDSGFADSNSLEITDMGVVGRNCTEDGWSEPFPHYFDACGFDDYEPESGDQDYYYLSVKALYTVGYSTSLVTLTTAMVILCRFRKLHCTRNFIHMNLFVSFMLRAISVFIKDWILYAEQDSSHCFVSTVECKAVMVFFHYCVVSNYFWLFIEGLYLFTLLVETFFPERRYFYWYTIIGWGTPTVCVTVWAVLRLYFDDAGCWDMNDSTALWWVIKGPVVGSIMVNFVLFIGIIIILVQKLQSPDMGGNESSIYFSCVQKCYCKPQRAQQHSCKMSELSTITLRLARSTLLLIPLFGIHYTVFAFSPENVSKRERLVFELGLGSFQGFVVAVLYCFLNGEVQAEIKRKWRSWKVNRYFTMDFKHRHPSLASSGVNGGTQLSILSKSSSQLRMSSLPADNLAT", "experiment": "CREB phosphorylation by PACAP stimulus, Western blot, PAC1/CHO cells", "assay_type": "cell-based", "procedure": "The effect of each compound on the phosphorylation of CREB (cAMP-responsive element-binding protein) produced by a PACAP stimulus was examined by Western blot analysis using an anti-phosphorylated CREB (pCREB) antibody with a mouse PAC1 receptor-expressing CHO cells (PAC1/CHO cells) and a mouse VPAC1 receptor-expressing CHO cells (VPAC1/CHO cells).\nSpecifically, treatment with a compound (PA-8, compound 2j and compound 2o) at 10 pM to 10 nM or a solvent therefor, DMSO (VEH: 0.1% DMSO-containing phosphate buffer solution) was performed for 30 minutes, 1 nM PACAP was then added, and protein was recovered within 30 minutes after a PACAP stimulus.\nThe effect of each compound on the phosphorylation of CREB (cAMP-responsive element-binding protein) produced by a PACAP stimulus was examined by Western blot analysis using an anti-phosphorylated CREB (pCREB) antibody with a mouse PAC1 receptor-expressing CHO cells (PAC1/CHO cells)."}, "[4]": {"system": "psoriasis mouse model", "experiment": "Psoriasis mouse model (imiquimod)", "assay_type": "in vivo, ICR mice", "settings": "30 mg/kg p.o. 30 minutes before 1 hour video observation; FIG. 14", "procedure": "The present test was carried out with reference to the method of van der Fits et al. that is a test system published as a method for evaluating itch in animals (van der Fits L., Mounts S., Voerman J S A., et al.: Imiquimod-Induced Psoriasis-Like Skin Inflammation in Mice Is Mediated via the IL-23/IL-17 Axis, J. Immunol., 182, 5836-5845, 2009).\nFive-week-old ICR mice (20 mice) were each placed in a cage, and were then conditioned for 1 week. Thereafter, three days before initiation of the test, the waist of each mouse was shaved. Then, 62.5 mg of commercially available imiquimod cream (5% Beselna Cream; MOCHIDA PHARMACEUTICAL CO., LTD.) was applied onto the shaved waist skin of the mice once a day for 5 days, so as to produce imiquimod-induced psoriasis model. Twenty-four hours after the final application of the cream (Day 5), video observation was carried out for 1 hour. The shaved 20 mice were divided into 5 groups (4 mice per group), namely, a 30 mg/kg PA-8 oral (p.o.) administration group, a 30 mg/kg compound 2o oral (p.o.) administration group, a 30 mg/kg PA-9 oral (p.o.) administration group, a 30 mg/kg compound 3d (p.o.) administration group, and a solvent administration group (VEH: oral administration of 10% DMSO aqueous solution). Oral administration was carried out 30 minutes before initiation of the video observation."}},
  "data": [
    {"smiles": "C=CCOc1ccc(C2CC(=O)Nc3nc(N)[nH]c(=O)c32)cc1OC", "note": "(centres unmarked) [PA-8]", "values": [
      {"measurement": "5-HT-induced itch behavior (bite, lick or scratch the injected site, action time)", "setting": "[1]", "value": "almost completely suppressed"},
      {"measurement": "scratching behavior induced by the AEW treatment (time spent in scratching)", "setting": "[2]", "value": "significantly suppressed"},
      {"measurement": "CREB phosphorylation by PACAP (1 nM)", "setting": "[3]; PAC1/CHO cells, compound 10 pM to 10 nM for 30 minutes before PACAP, FIG. 4A, 4C, 4D, 5", "value": "suppressed CREB phosphorylation"},
      {"measurement": "receptor selectivity (PAC1 versus VPAC1)", "setting": "[3]; concluded from PAC1/CHO and VPAC1/CHO pCREB data", "value": "PAC1 receptor selective antagonist"},
      {"measurement": "itch behavior induced by application of imiquimod (time spent in scratching)", "setting": "[4]", "value": "significantly suppressed"}
    ]}
  ]
}
